US20120058989A1, “ANTIBACTERIAL FLUOROQUINOLONE ANALOGS” (Achaogen, Inc., priority 2008, published 2012)
In brackets after ≈: the same amount, converted by molar mass. Where two headings read alike, the source gives them in different places.

Experiments:
Test in all cases: MIC, CLSI broth microdilution
Assay type in all cases: cell-based
[1] = system: A. baumannii AABA1009 (Fluoroquinolone-resistant); conditions: for MIC: Acinetobacter baumannii, Table 2, read-out: MIC AABA 1009; for MIC AABA 1009: Table 2
In short: (§1)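 Test compounds were diluted two-fold at 2× strength in Mueller Hinton Broth, then combined 1:1 with saline-suspended bacteria from an overnight agar colony to reach 5×10^5 CFU/mL. Incubation followed at 35° C. for 20 hours in ambient air, per CLSI reference methods.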

[2] = system: A. baumannii AABA1020 (Fluoroquinolone-resistant); conditions: Table 3
In short: as §1

[3] = system: A. baumannii AABA1065 (Fluoroquinolone-susceptible); conditions: for MIC: Acinetobacter baumannii
In short: as §1

[4] = system: E. coli AECO001 (Fluoroquinolone susceptible, ATCC25922); conditions: for MIC: Escherichia coli
In short: as §1

[5] = system: E. coli AECO002 (Fluoroquinolone susceptible); conditions: Table 3
In short: as §1

[6] = system: E. coli AECO066 (Fluoroquinolone-resistant); conditions: for MIC: Escherichia coli
In short: as §1

[7] = system: E. coli AECO086 (Fluoroquinolone-resistant); conditions: Table 3
In short: as §1

[8] = system: P. aeruginosa APAE001 (Fluoroquinolone-susceptible, ATCC27853); conditions: for MIC: Pseudomonas aeruginosa
In short: as §1

[9] = system: P. aeruginosa APAE002 (Fluoroquinolone susceptible); conditions: Table 3
In short: as §1

[10] = system: P. aeruginosa APAE054 (Fluoroquinolone-resistant); conditions: for MIC: Pseudomonas aeruginosa
In short: as §1

[11] = system: S. aureus ASAU001 (Fluoroquinolone-susceptible, ATCC29213); conditions: for MIC: Staphylococcus aureus
In short: as §1

[12] = system: S. aureus ASAU002 (Fluoroquinolone-susceptible, ATCC33591 (MRSA)); conditions: Table 3
In short: as §1

[13] = system: S. aureus ASAU1031 (Fluoroquinolone-resistant); conditions: for MIC: Staphylococcus aureus
In short: as §1

[14] = system: S. aureus ASAU1033 (Fluoroquinolone-resistant); conditions: Table 3
In short: as §1

[15] = system: S. pneumoniae ASPN001 (Fluoroquinolone-susceptible, ATCC49619); conditions: for MIC: Streptococcus pneumoniae
In short: as §1

[16] = system: S. pneumoniae ASPN002 (Fluoroquinolone-susceptible, ATCC10813); conditions: Table 3
In short: as §1

[17] = system: S. pneumoniae ASPN1018 (Fluoroquinolone-resistant); conditions: Table 3
In short: as §1

[18] = system: S. pneumoniae ASPN1027 (Fluoroquinolone-resistant); conditions: for MIC: Streptococcus pneumoniae
In short: as §1

[19] = Table 2, read-out: MIC AABA 1065
[20] = Table 2, 35° C., 20 hours, read-out: MIC AECO 001
[21] = Table 2, read-out: MIC AECO 066
[22] = Table 2, read-out: MIC APAE 001
[23] = Table 2, read-out: MIC APAE 054
[24] = Table 2, read-out: MIC ASAU 001
[25] = Table 2, read-out: MIC ASAU 1031
[26] = Table 2, read-out: MIC ASPN 001
[27] = Table 2, read-out: MIC ASPN 1027

SMILES | MIC [1] [µg/mL] | MIC [3, 19] [µg/mL] | MIC [4, 20] [µg/mL] | MIC [6, 21] [µg/mL] | MIC [8, 22] [µg/mL] | MIC [10, 23] [µg/mL] | MIC [11, 24] [µg/mL] | MIC [13, 25] [µg/mL] | MIC [15, 26] [µg/mL] | MIC [18, 27] [µg/mL] | MIC AABA 1009 [1] | MIC AABA 1065 ([3]; Table 2) | MIC AECO 001 ([4]; Table 2, 35° C., 20 hours) | MIC AECO 066 ([6]; Table 2) | MIC APAE 001 ([8]; Table 2) | MIC APAE 054 ([10]; Table 2) | MIC ASAU 001 ([11]; Table 2) | MIC ASAU 1031 ([13]; Table 2) | MIC ASPN 001 ([15]; Table 2) | MIC ASPN 1027 ([18]; Table 2) | other results
N[C@H]1C[C@H]2CCCc3c(c(F)cc4c(=O)c(C(=O)O)cn(C5CC5)c34)N2C1 [3/15] | > 8 | ≤ 1 | ≤ 1 | 1 to 8 (≈ 2.69 to 21.5 µM) | 1 to 8 (≈ 2.69 to 21.5 µM) | > 8 | ≤ 1 | 1 to 8 (≈ 2.69 to 21.5 µM) | ≤ 1 | 1 to 8 (≈ 2.69 to 21.5 µM) | – | – | – | – | – | – | – | – | – | – | MIC ([2]; Acinetobacter baumannii): > 8 µg/mL; MIC ([3]; Table 3): < 1 µg/mL; MIC ([4]; Table 3): < 1 µg/mL; MIC ([5]; Escherichia coli): < 1 µg/mL; MIC ([6]; Table 3): 2 to 8 µg/mL (≈ 5.38 to 21.5 µM); MIC ([7]; Escherichia coli): 2 to 8 µg/mL (≈ 5.38 to 21.5 µM); MIC ([8]; Table 3): < 1 µg/mL; MIC ([9]; Pseudomonas aeruginosa): < 1 µg/mL; MIC ([10]; Table 3): > 8 µg/mL; MIC ([11]; Table 3): < 1 µg/mL; MIC ([12]; Staphylococcus aureus): < 1 µg/mL; MIC ([13]; Table 3): 2 to 8 µg/mL (≈ 5.38 to 21.5 µM); MIC ([14]; Staphylococcus aureus): > 8 µg/mL; MIC ([15]; Table 3): < 1 µg/mL; MIC ([16]; Streptococcus pneumoniae): < 1 µg/mL; MIC ([17]; Streptococcus pneumoniae): 1 to 2 µg/mL (≈ 2.69 to 5.38 µM); MIC ([18]; Table 3): 2 to 8 µg/mL (≈ 5.38 to 21.5 µM)
N[C@H]1C[C@H]2CC=Cc3c(c(F)cc4c(=O)c(C(=O)O)cn(C5CC5)c34)N2C1.O=C(O)C(F)(F)F [7B/18, (7aR,9S)-9-Amino-4-cyclopropyl-12-fluoro-1-oxo-4,7,7a,8,9,10-hexahydro-1H-pyrrolo[1′,2′:1,7]azepino[2,3h]-quinoline-2-carboxylic acid trifluoroacetate] | – | – | – | – | – | – | – | – | – | – | C (MIC's of greater than 8.0 μg/mL = C) | A (MIC's of 1.0 μg/mL or less = A) | A (MIC's of 1.0 μg/mL or less = A) | B (MIC's of greater than 1.0 μg/mL to 8.0 μg/mL = B) | A (MIC's of 1.0 μg/mL or less = A) | C (MIC's of greater than 8.0 μg/mL = C) | A (MIC's of 1.0 μg/mL or less = A) | B (MIC's of greater than 1.0 μg/mL to 8.0 μg/mL = B) | A (MIC's of 1.0 μg/mL or less = A) | B (MIC's of greater than 1.0 μg/mL to 8.0 μg/mL = B) | MIC AABA1020 [2]: C (MIC's of 2.0 μg/mL to 8.0 μg/mL = C); MIC AABA 1065 ([3]; Table 3): A (MIC's of less than 1.0 = A); MIC AECO 001 ([4]; Table 3): A (MIC's of less than 1.0 = A); MIC AECO002 [5]: A (MIC's of less than 1.0 = A); MIC AECO 066 ([6]; Table 3): C (MIC's of 2.0 μg/mL to 8.0 μg/mL = C); MIC AECO086 [7]: C (MIC's of 2.0 μg/mL to 8.0 μg/mL = C); MIC APAE 001 ([8]; Table 3): A (MIC's of less than 1.0 = A); MIC APAE002 [9]: A (MIC's of less than 1.0 = A); MIC APAE 054 ([10]; Table 3): D (MIC's of greater than 8.0 μg/mL = D); MIC ASAU 001 ([11]; Table 3): A (MIC's of less than 1.0 = A); MIC ASAU002 [12]: A (MIC's of less than 1.0 = A); MIC ASAU 1031 ([13]; Table 3): C (MIC's of 2.0 μg/mL to 8.0 μg/mL = C); MIC ASAU1033 [14]: D (MIC's of greater than 8.0 μg/mL = D); MIC ASPN 001 ([15]; Table 3): A (MIC's of less than 1.0 = A); MIC ASPN002 [16]: A (MIC's of less than 1.0 = A); MIC ASPN1018 [17]: B (MIC's of 1.0 μg/mL to 2.0 μg/mL = B); MIC ASPN 1027 ([18]; Table 3): C (MIC's of 2.0 μg/mL to 8.0 μg/mL = C)
CON=C1Cc2c(c(F)cc3c(=O)c(C(=O)O)cn(C4CC4)c23)N2CCCC2C1 (stereo not shown) [27/11, 4-Cyclopropyl-12-fluoro-6-(methoxyimino)-1-oxo-4,5,6,7,7a,8,9,10-octahydro-1H-pyrrolo[1′,2′:1,7]azepino[2,3-h]quinoline-2-carboxylic acid] | – | – | – | – | – | – | – | – | – | – | C (MIC's of greater than 8.0 μg/mL = C) | B (MIC's of greater than 1.0 μg/mL to 8.0 μg/mL = B) | B (MIC's of greater than 1.0 μg/mL to 8.0 μg/mL = B) | C (MIC's of greater than 8.0 μg/mL = C) | C (MIC's of greater than 8.0 μg/mL = C) | C (MIC's of greater than 8.0 μg/mL = C) | A (MIC's of 1.0 μg/mL or less = A) | C (MIC's of greater than 8.0 μg/mL = C) | B (MIC's of greater than 1.0 μg/mL to 8.0 μg/mL = B) | C (MIC's of greater than 8.0 μg/mL = C) | –
O=C(O)c1cn(C2CC2)c2c3c(c(F)cc2c1=O)N1CCCC1CC(=NO)C3 (stereo not shown) [27/12, 4-Cyclopropyl-12-fluoro-6-(hydroxyimino)-1-oxo-4,5,6,7,7a,8,9,10-octahydro-1H-pyrrolo[1′,2′:1,7]azepino[2,3-h]quinoline-2-carboxylic acid] | – | – | – | – | – | – | – | – | – | – | C (MIC's of greater than 8.0 μg/mL = C) | B (MIC's of greater than 1.0 μg/mL to 8.0 μg/mL = B) | B (MIC's of greater than 1.0 μg/mL to 8.0 μg/mL = B) | C (MIC's of greater than 8.0 μg/mL = C) | C (MIC's of greater than 8.0 μg/mL = C) | C (MIC's of greater than 8.0 μg/mL = C) | A (MIC's of 1.0 μg/mL or less = A) | B (MIC's of greater than 1.0 μg/mL to 8.0 μg/mL = B) | B (MIC's of greater than 1.0 μg/mL to 8.0 μg/mL = B) | C (MIC's of greater than 8.0 μg/mL = C) | –
N[C@H]1CC2CC=Cc3c(c(F)cc4c(=O)c(C(=O)O)cn(C5CC5)c34)N2C1 (stereo partly shown) [32 /5] | > 8 | ≤ 1 | ≤ 1 | > 8 | ≤ 1 | > 8 | ≤ 1 | 1 to 8 (≈ 2.71 to 21.7 µM) | ≤ 1 | 1 to 8 (≈ 2.71 to 21.7 µM) | – | – | – | – | – | – | – | – | – | – | –
O=C(O)c1cn(C2CC2)c2c3c(c(F)cc2c1=O)N1CCCC1CCO3 (stereo not shown) [32/1] | > 8 | 1 to 8 (≈ 2.79 to 22.3 µM) | ≤ 1 | > 8 | > 8 | > 8 | ≤ 1 | > 8 | 1 to 8 (≈ 2.79 to 22.3 µM) | > 8 | – | – | – | – | – | – | – | – | – | – | –
N[C@H]1C[C@H]2CCOc3c(c(F)cc4c(=O)c(C(=O)O)cn(C5CC5)c34)N2C1 [32/2] | > 8 | ≤ 1 | ≤ 1 | > 8 | ≤ 1 | > 8 | ≤ 1 | > 8 | ≤ 1 | > 8 | – | – | – | – | – | – | – | – | – | – | –
N[C@H]1CC2CCCc3c(c(F)cc4c(=O)c(C(=O)O)cn(C5CC5)c34)N2C1 (stereo partly shown) [32/4] | > 8 | > 8 | ≤ 1 | > 8 | 1 to 8 (≈ 2.69 to 21.5 µM) | > 8 | ≤ 1 | > 8 | ≤ 1 | 1 to 8 (≈ 2.69 to 21.5 µM) | – | – | – | – | – | – | – | – | – | – | –
CO/N=C1\CN(c2nc3c(cc2F)c(=O)c(C(=O)O)cn3C2CC2)CC1CN (stereo not shown) [Gemifloxacin, reference compound] | > 8 | ≤ 1 | ≤ 1 | > 8 | ≤ 1 | > 8 | ≤ 1 | > 8 | ≤ 1 | 1 to 8 (≈ 2.57 to 20.5 µM) | – | – | – | – | – | – | – | – | – | – | –
